Values joined by “and” are separate entries in the source; they are usually repeats but may differ in a detail not shown here. Equal entries are not always repeated. Where two headings read alike, the source gives them in different places.
Tests used:
hSGLT3 [1] = biological target: T1, hSGLT3 (Homo sapiens, UniProt Q9NY91); assay: two-electrode voltage-clamp, membrane potential of hSGLT3-expressing Xenopus oocytes; assay type: cell-based; settings: for effect on the membrane potential: concentrations as high as 100 mM; for membrane depolarization: 5 mM sugar, Na+ buffer pH 7.5, single oocyte; for effect on the membrane potential (qualitative): exposure of hSGLT3 oocytes to sugar; for inhibition of glucose-induced membrane depolarization: 250 μM phlorizin
T1 construct: The complete hSGLT3 clone was created by ligation of this PCR product to the 3′-end of hSGLT3 at the HindIII site; expressed in transfected cells; host or cells: Xenopus laevis oocytes injected with hSGLT3 cRNA
T1 sequence (Q9NY91 1-659): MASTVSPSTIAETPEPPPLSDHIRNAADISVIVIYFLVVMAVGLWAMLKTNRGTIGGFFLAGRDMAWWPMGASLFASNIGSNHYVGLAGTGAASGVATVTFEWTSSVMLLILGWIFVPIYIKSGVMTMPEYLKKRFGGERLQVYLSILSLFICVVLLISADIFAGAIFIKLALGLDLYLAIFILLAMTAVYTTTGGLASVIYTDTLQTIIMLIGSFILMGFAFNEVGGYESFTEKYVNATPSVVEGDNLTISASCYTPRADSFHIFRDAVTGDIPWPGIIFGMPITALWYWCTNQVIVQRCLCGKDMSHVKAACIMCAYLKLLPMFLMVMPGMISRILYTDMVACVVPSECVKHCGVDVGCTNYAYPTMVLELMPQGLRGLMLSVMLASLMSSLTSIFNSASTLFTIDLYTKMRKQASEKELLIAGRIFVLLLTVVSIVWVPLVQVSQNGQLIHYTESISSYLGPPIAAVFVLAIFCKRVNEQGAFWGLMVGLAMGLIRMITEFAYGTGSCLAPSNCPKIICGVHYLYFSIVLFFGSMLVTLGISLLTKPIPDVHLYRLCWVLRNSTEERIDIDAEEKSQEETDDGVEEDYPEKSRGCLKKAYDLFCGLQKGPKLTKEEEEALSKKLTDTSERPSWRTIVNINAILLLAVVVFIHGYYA
Method: (§1) Expression of hSGLT3 in oocytes. Stage VI oocytes from Xenopus laevis (Nasco, Fort Atkinson, Wis.) were defolliculated and injected with hSGLT3 cRNA and maintained at 18° C. in modified Barth's medium containing gentamycin (5 mg/ml) and penicillin (100 units/ml)/streptomycin (100 μg/ml). Each oocyte was injected with 20 ng of cRNA. Experiments were performed at 22±1° C., 3-9 days after the injection.
(§2) Two electrode-voltage clamp. Oocytes expressing SGLTs and control oocytes were placed in the chamber, impaled with the two electrodes and continuously superfused with the required medium (Loo et al. (1998) Proc. Natl. Acad. Sci. USA 95:7789-7794). Membrane potential changes and ionic currents were measured when adding different sugar concentrations. Sugar-specific changes in current were the difference between the values measured with sugar and the preceding value in buffer alone. Na^+ buffer contained 100 mM NaCl, 2 mM KCl, 1 mM CaCl2, 1 mM MgCl2 and 10 mM HEPES/tris (pH 7.5). In Na^+-free buffer, choline Cl replaced NaCl, and for the experiments at pH 5.0 HEPES/tris was replaced with MES/tris. In some experiments at low pH we simultaneously recorded the intracellular pH of the oocyte using the fluorescent dye BCECF-AM (15, 16). The apparent affinity (K0.5) and apparent maximal current (Imax) were calculated with the equation [1]=Imax. [S]/(K0.5+[S]), using the non-linear fitting method in SigmaPlot (SPSS, Chicago, Ill.) where [S] is the sugar concentration. The results are illustrated by experiments on single oocytes, but each was representative of at least 3-8 different oocytes.
(§3) Using the techniques described above, a two-electrode voltage-clamp was used to monitor hSGLT3's electrical properties in Xenopus oocytes. The oocytes were exposed to candidate compounds, and the depolarization of membrane potential was recorded.

control cells = assay: response of control cells to amino sugars; assay type: cell-based, Xenopus laevis; settings: 30 mM
Method: as §2, with “The results are illustrated by experiments on single oocytes, but each was representative of at least 3-8 different oocytes.” left out
as §3

SGLT1 [2] = biological target: T2, SGLT1 (Homo sapiens, UniProt P13866); assay: response of cells expressing SGLT1 to amino sugars; assay type: cell-based; parameters: expressed in transfected cells; host or cells: cells expressing SGLT1; Xenopus oocytes are inferred from 'Using the techniques described above'; settings: 30 mM
T2 sequence (P13866 1-664): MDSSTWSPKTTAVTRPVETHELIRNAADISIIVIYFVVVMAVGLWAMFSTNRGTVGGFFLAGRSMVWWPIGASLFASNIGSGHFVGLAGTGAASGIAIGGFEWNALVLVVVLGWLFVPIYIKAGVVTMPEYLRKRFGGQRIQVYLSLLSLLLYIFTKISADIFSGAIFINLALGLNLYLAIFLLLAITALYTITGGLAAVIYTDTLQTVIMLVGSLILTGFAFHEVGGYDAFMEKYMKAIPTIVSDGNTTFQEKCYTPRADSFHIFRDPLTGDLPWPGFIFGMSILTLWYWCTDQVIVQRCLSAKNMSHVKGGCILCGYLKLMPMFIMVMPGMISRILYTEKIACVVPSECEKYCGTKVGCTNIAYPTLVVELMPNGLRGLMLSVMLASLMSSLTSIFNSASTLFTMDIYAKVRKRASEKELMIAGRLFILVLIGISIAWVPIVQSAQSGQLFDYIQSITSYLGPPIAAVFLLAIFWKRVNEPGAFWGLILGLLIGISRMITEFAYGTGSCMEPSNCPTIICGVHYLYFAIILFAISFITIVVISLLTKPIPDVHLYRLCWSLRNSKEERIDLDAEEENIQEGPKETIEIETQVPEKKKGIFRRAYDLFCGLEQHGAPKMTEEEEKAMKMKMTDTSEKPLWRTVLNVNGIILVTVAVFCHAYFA
Method: as §2, with “The results are illustrated by experiments on single oocytes, but each was representative of at least 3-8 different oocytes.” left out
as §3

hSGLT3 [3] = biological target: T1, hSGLT3; assay: simultaneous [14C]-glucose uptake and sugar-induced current in hSGLT3-expressing oocytes; assay type: cell-based
Method: as §1
(§4) Uptake experiments. Control oocytes or oocytes expressing a SGLT were superfused with a buffer solution containing either 100 mM NaCl or choline chloride at pH 7.5 or 5 while the plasma membrane potential was clamped at voltages between −50 and −110 mV. […] After the sugar was removed from the bathing solution the current returned to the baseline. The oocyte was washed, solubilized and glucose uptake determined using a scintillation spectrometer. Sugar-induced current was obtained by integrating the difference between baseline and the glucose-dependent current. The current, measured simultaneously with sugar uptake, was converted to its molar equivalent of univalent charge. [^14C]-glucose uptake in non-injected oocytes from the same batch of oocytes was used as a control.

pSGLT3 = biological target: T3, pSGLT3 (Sus scrofa, UniProt P31636); assay: ratio of positive ion uptake and sugar uptake in pSGLT3-expressing oocytes; assay type: cell-based, pig
T3 construct: expressed in transfected cells; host or cells: Xenopus laevis oocytes expressing pig SGLT3
T3 sequence (P31636 1-660): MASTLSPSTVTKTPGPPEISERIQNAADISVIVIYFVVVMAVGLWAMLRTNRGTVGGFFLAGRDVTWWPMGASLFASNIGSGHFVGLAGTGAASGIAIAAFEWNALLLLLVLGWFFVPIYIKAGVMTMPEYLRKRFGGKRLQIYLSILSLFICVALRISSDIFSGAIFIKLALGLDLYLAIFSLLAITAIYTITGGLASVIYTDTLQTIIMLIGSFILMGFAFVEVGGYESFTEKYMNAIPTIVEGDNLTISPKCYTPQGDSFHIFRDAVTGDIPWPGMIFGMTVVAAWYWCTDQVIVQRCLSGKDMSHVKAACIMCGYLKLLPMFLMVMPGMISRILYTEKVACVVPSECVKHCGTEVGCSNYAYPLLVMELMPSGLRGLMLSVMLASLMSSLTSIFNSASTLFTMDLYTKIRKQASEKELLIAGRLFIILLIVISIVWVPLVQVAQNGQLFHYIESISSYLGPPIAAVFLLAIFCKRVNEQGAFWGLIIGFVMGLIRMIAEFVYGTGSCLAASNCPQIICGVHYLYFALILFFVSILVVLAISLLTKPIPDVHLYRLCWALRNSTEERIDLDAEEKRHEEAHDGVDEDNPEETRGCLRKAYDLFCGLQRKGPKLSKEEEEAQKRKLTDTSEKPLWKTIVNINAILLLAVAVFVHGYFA
Method: as §4

hSGLT3 [4] = biological target: T1, hSGLT3; assay: sugar-induced currents in hSGLT3-expressing oocytes under voltage clamp; assay type: cell-based
Method: as §1, §2

SGLT1 [5] = biological target: T2, SGLT1; parameters: host or cells: Xenopus laevis oocytes expressing hSGLT1; settings: cited from earlier work
neuroendocrine cells = settings: Na+-dependent and phlorizin-sensitive manner; cited from earlier work
[6] = injected into the cerebrospinal fluid; cited from earlier work
[7] = test system: glucose-responsive neurons in the hypothalamus; settings: cited from earlier work
guinea pig ileum = assay: mechanical activity of guinea pig ileum
[8] = 2 mM glucose, -70 mV, Na+ buffer pH 5

For O=C[C@H](O)C[C@H](O)[C@H](O)CO [3-deoxy-D-glucose], the “effect on the membrane potential” value (hSGLT3 [1]) was “failed to affect the membrane potential”.

With CCN1C[C@H](O)[C@@H](O)[C@H](O)[C@H]1CO [N-(n-ethyl)deoxynojirimycin] the “effects on control cells” value (control cells) was “no effects” and the “effects on cells expressing SGLT1” value (SGLT1 [2]) was “no effects”.

In the case of O=C[C@H](O)[C@@H](O)[C@H](O)[C@H](O)CO [D-glucose], the “depolarization of the membrane potential by phlorizin sensitive inward current” value (hSGLT3 [1]) is reported as “up to 50 mV”, the membrane depolarization (hSGLT3 [1]) is reported as “about 4 mV” and the ΔVmax (hSGLT3 [1]; 6 experiments) is reported as 26±9 mV. The EC50 (hSGLT3 [1]; K0.5 (apparent affinity) of depolarization, 6 experiments, pH 7.5) was 60 mM and ~60 mM, the “effect on the membrane potential (qualitative)” value (hSGLT3 [1]) was “reversibly depolarized the membrane potential” and the “maximal depolarization (ΔVm)” value (hSGLT3 [1]; fit of a single oocyte (FIG. 4B)) was 23 mV. For the same compound, the “cation uptake in hSGLT3 oocytes” value (hSGLT3 [3]; 2 mM D-glucose, 5 minutes, Na+ pH 5, n=5) was 81 ± 7 pmol, the “D-glucose uptake in hSGLT3 oocytes” value (hSGLT3 [3]; 2 mM D-glucose, 5 minutes, Na+ pH 5, n=5, control oocytes 11±0.6) was 11 ± 0.5 pmol and the “glucose uptake in hSGLT3 oocytes compared with control oocytes” value (hSGLT3 [3]; [8]) was “identical to that in control oocytes”. The “sugar dependent current equivalent to univalent positive charge” value (hSGLT3 [3]; [8]) was 81±7 pmol per 5 minutes, the “ratio positive charge / sugar uptake” value (pSGLT3; acidic pH, n=6) was 4.7±0.2 and the “ratio positive charge / sugar uptake” value (pSGLT3; neutral pH, n=12) was 2.1±0.1. The “activation energy (Ea) of glucose-induced current” value (hSGLT3 [4]; pH 5, presence and absence of Na+, 10, 22 and 28° C., Arrhenius plots) was about 9 kcal/mol, the “ratio positive ion uptake / sugar uptake” value (SGLT1 [5]; Na+ at neutral pH, n=4) was 2.1±0.04 and the “ratio positive ion uptake / sugar uptake” value (SGLT1 [5]; acidic pH in H+, n=7) was 2±0.1.

For O=C(CO)[C@@H](O)[C@H](O)[C@H](O)CO [D-fructose], the “effect on the membrane potential” value (hSGLT3 [1]) was “no effect”.

In the case of O=C[C@H](O)[C@@H](O)[C@@H](O)[C@H](O)CO [D-galactose], the membrane depolarization (hSGLT3 [1]) is reported as “no effect” and the “effect on the membrane potential” value (hSGLT3 [1]) is reported as “no effect”.

In the case of CO[C@H]1O[C@H](CO)[C@@H](O)[C@H](O)[C@H]1O [αMDG, α-methyl-D-glucopyranoside], the membrane depolarization (hSGLT3 [1]) is given as “about 4 mV”, the “effect on the membrane potential (qualitative)” value (hSGLT3 [1]) is given as “reversibly depolarized the membrane potential” and the GLP-1 peptide secretion (neuroendocrine cells) is given as “stimulates GLP-1 peptide secretion”. For the same compound, the “maximum current at saturating sugar concentration (Imax)” value (hSGLT3 [4]; -150 mV, Na+ buffer, n=5) was 122±20 nA, the EC50 (hSGLT3 [4]; -150 mV, Na+ buffer, n=5, read-out: apparent sugar affinity (K0.5) of current) was 36 ± 6 mM and the Imax (hSGLT3 [4]; pH 5 in Choline Cl, four oocytes) was 2385±651 nA. It also gave an Imax (hSGLT3 [4]; pH 5 in NaCl, four oocytes) of 1725±99 nA and an EC50 (hSGLT3 [4]; pH 5 in NaCl, four oocytes, read-out: K0.5) of 41 ± 7 mM.

For O=C(CCc1ccc(O)cc1)c1c(O)cc(O)cc1O[C@@H]1O[C@H](CO)[C@@H](O)[C@H](O)[C@H]1O [phlorizin], the “block of the responses to the amino sugars” value (hSGLT3 [1]) was “blocked”, the “inhibition of glucose-induced membrane depolarization” value (hSGLT3 [1]) was “blocked” and the “inhibition of glucose-induced membrane depolarization” value (hSGLT3 [1]; listed as Phlorizin) was “inhibited the membrane depolarization”. The food intake [6] was “increases food intake”, the “glucose mediated increase in firing rate” value [7] was “blocks” and the “block of the effect of glucose on mechanical activity of guinea pig ileum” value (guinea pig ileum) was “blocked”.

With OC[C@@H](O)[C@@H](O)[C@H](O)[C@H](O)CO [mannitol] the “effect on the membrane potential” value (hSGLT3 [1]) was “no effect”.

With OC[C@H]1NC[C@H](O)[C@@H](O)[C@@H]1O [Deoxynojirimycin] the EC50 (hSGLT3 [1]; range printed with mixed units (nanomolar to micromolar), read-out: affinities to activate SGLT2) was 0.0005 to 0.002 mM, the “effects on control cells” value (control cells) was “no effects” and the “effects on cells expressing SGLT1” value (SGLT1 [2]) was “no effects”.

Reference: patent publication US7238708B2, “Glucose sensor” (The Regents of the University of California, priority 2004, dated 2007)
